Test in all cases: growth of human tumour cells (NCI), 48 h
Experiment [1] concerns UACC-62 melanoma.
Experiment [2] relates to SW-620 colon.
The subject of experiment [3] is RPMI-8226 leukemia.
The test system of experiment [4] is MDA-N.
The subject of experiment [5] is SK-MEL-28 melanoma.
For experiment [6], the system named is HCC-2998 colon.
The subject of experiment [7] is SF-295 CNS.
For experiment [8], the system named is U251 CNS.
Experiment [9] has as its system SNB-19 CNS.
For experiment [10], the system named is HT29 colon.
The subject of experiment [11] is MDA-MB-231 breast.
For experiment [12], the system named is BT-549 breast.
For experiment [13], the system named is NCI/ADR-RES ovarian.
In experiment [14] the test system is SK-MEL-2 melanoma.
Experiment [15] deals with OVCAR-3 ovarian.
Experiment [16] relates to SNB-75 CNS.
Experiment [17] has as its system HL-60(TB) leukemia.
Experiment [18] deals with A549 NSCLC.

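1) Cells in 96-well plates. 2) Compound, 48 h, 5 concentrations. 3) Linear interpolation between surrounding doses. 4) Unreached endpoint = highest concentration. At the TGI there is no net growth.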 Where only a bound is given, the exact number is not on record here.

As for `CNc1ccc(Cl)cc1C(=O)N1CCC[C@H]1CO`, the TGI in experiment [1], in experiment [2], in [3], in [4], in experiment [5] and in experiment [6] was > 100 µM each time. For the same compound, the TGI in experiment [7], in [8], in experiment [9], in experiment [10], in experiment [11] and in [12] was > 100 µM in each case. Further, the TGI in experiment [13], in experiment [14], in [15], in [16], in [17] and in experiment [18] was > 100 µM in each case.
Turning to `CC(=S)NC=C(C(N)=O)C(N)=O`, the TGI in [1], in experiment [2], in experiment [3], in experiment [4], in experiment [5] and in experiment [6] was > 100 µM each time. Also, the TGI in experiment [7], in experiment [8], in experiment [10], in [11], in experiment [12] and in [13] was > 100 µM throughout. The TGI in experiment [14], in experiment [15], in experiment [16], in experiment [17] and in experiment [18] was > 100 µM throughout.
With `O=C(Cc1ccccc1)Nc1nc2ccc(Cl)cc2c2nc(-c3ccco3)nn12`, the TGI in experiment [1], in [2], in [3], in experiment [4], in [5] and in experiment [6] was > 100 µM in each case. Moreover, the TGI in experiment [7] was > 100 µM; in experiment [8], > 100 µM; in experiment [9] it was > 55.6 µM; in experiment [10], > 100 µM; in experiment [11] it was > 100 µM; in experiment [12], > 100 µM. For the same compound, the TGI is > 100 µM in experiment [13]; > 100 µM in experiment [14]; > 100 µM in experiment [15]; > 54.2 µM in [16]; > 100 µM in [17]; > 100 µM in [18].
On to `COc1ccc(N2C(=O)C3c4[nH]c5ccc(OC)cc5c4C4CCC(c5ccccc5)CC4C3C2=O)cc1` (stereo not drawn), for which the TGI in experiment [1] was 36.4 µM; in experiment [2] it was 25.1 µM; in [3] it was 39.7 µM; in experiment [4] it was > 66.7 µM; in experiment [5] it was 37 µM; in [6], 49.5 µM. Also, the TGI is 24.2 µM in [7]; 22.8 µM in experiment [8]; 28.8 µM in experiment [9]; > 40.5 µM in experiment [10]; 25 µM in [11]; 58.7 µM in experiment [12]. Further, the TGI came out at 33.2 µM in experiment [13]; 47.4 µM in experiment [14]; 37 µM in experiment [15]; 16.7 µM in experiment [16]; 66 µM in experiment [17]; 40.3 µM in [18].
For the compound `CN(C)c1ccc(C2=C([O-])c3cc(-[n+]4ccccc4)ccc3C2=O)cc1`, the TGI in experiment [2], in experiment [3], in experiment [4], in experiment [5], in experiment [6] and in experiment [7] was > 100 µM throughout. For the same compound, the TGI in [8], in experiment [9], in experiment [10], in experiment [11], in experiment [12] and in experiment [13] was > 100 µM in each case. The TGI in experiment [15], in experiment [16], in experiment [17] and in experiment [18] was > 100 µM each time.
For `NC(=S)NN=C1Cc2ccccc2C1`, the TGI in [1], in [2], in [3], in [4], in experiment [5] and in [6] was > 100 µM each time. In addition, the TGI in [7], in [8], in experiment [9], in [10], in experiment [11] and in experiment [12] was > 100 µM throughout. The TGI in experiment [13], in experiment [14], in [15], in experiment [16], in experiment [17] and in experiment [18] was > 100 µM in each case.
Consider `CCCCCCCCCCCCCC/C(C(=O)O)=C(\C)C(=O)O`, for which the TGI in experiment [1], in [2], in experiment [3], in [4], in [5] and in experiment [6] was > 100 µM in each case. Further, the TGI in experiment [7], in [8], in experiment [9], in [10], in experiment [11] and in experiment [12] was > 100 µM throughout. For the same compound, the TGI in [13], in experiment [14], in experiment [15], in experiment [16], in [17] and in [18] was > 100 µM in each case.

The values above are taken from PubChem BioAssay (NCI).
